# Test results published in ChEMBL document CHEMBL5678818, “Discovery of potent SOS1 inhibitors that block RAS activation via disruption of the RAS-SOS1 interaction” (Proc Natl Acad Sci U S A, 2019).
# Tests used:
# [1] = target: 5'-AMP-activated protein kinase catalytic subunit alpha-1 (Homo sapiens) (UniProt Q13131); test: Inhibition of AMPK-alpha1 (unknown origin) assessed as residual activity at 1000 nM by KINOMEscan analysis relative to control
# [2] = target: Cyclin-dependent kinase 8 (Homo sapiens) (UniProt P49336); test: Inhibition of CDK8 (unknown origin) assessed as residual activity at 1000 nM by KINOMEscan analysis relative to control
# [3] = target: T1, Serine/threonine-protein kinase LATS1 (Homo sapiens) (UniProt O95835); test: Inhibition of LATS1 (unknown origin) assessed as residual activity at 1000 nM by KINOMEscan analysis relative to control
# T1 sequence (whole entry): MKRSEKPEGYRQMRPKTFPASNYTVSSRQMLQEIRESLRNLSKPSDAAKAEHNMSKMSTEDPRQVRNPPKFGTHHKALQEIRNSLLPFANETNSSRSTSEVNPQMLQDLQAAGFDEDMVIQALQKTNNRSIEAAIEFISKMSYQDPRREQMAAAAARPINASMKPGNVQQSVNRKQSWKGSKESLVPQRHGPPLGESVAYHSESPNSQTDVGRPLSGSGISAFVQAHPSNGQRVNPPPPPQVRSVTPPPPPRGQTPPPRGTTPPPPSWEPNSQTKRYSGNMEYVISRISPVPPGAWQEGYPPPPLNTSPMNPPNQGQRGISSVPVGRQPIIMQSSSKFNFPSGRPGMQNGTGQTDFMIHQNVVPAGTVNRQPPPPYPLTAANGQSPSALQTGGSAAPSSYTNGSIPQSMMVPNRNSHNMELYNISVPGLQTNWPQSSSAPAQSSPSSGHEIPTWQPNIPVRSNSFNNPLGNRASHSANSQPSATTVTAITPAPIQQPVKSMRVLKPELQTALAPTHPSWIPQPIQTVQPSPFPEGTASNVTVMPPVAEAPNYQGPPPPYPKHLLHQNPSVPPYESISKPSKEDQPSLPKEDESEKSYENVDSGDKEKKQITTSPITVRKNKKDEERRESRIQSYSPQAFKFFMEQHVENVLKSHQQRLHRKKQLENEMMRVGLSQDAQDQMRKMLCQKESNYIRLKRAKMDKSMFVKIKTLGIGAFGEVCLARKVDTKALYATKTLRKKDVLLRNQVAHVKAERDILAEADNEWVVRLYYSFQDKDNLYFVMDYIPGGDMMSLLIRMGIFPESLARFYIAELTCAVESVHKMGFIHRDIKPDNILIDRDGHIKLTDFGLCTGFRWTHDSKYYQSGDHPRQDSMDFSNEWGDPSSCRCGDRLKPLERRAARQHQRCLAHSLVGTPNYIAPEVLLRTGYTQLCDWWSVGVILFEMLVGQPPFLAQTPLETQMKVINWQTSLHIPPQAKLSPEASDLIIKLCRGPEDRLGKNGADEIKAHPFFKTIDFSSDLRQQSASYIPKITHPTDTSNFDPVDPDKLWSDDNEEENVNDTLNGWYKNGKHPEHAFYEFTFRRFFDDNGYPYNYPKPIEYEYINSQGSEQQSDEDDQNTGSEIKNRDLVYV
# [4] = target: MAP/microtubule affinity-regulating kinase 3 (Homo sapiens) (UniProt P27448); test: Inhibition of MARK3 (unknown origin) assessed as residual activity at 1000 nM by KINOMEscan analysis relative to control
# [5] = target: T2, Serine/threonine-protein kinase Nek9 (Homo sapiens) (UniProt Q8TD19); test: Inhibition of NEK9 (unknown origin) assessed as residual activity at 1000 nM by KINOMEscan analysis relative to control
# T2 sequence (whole entry): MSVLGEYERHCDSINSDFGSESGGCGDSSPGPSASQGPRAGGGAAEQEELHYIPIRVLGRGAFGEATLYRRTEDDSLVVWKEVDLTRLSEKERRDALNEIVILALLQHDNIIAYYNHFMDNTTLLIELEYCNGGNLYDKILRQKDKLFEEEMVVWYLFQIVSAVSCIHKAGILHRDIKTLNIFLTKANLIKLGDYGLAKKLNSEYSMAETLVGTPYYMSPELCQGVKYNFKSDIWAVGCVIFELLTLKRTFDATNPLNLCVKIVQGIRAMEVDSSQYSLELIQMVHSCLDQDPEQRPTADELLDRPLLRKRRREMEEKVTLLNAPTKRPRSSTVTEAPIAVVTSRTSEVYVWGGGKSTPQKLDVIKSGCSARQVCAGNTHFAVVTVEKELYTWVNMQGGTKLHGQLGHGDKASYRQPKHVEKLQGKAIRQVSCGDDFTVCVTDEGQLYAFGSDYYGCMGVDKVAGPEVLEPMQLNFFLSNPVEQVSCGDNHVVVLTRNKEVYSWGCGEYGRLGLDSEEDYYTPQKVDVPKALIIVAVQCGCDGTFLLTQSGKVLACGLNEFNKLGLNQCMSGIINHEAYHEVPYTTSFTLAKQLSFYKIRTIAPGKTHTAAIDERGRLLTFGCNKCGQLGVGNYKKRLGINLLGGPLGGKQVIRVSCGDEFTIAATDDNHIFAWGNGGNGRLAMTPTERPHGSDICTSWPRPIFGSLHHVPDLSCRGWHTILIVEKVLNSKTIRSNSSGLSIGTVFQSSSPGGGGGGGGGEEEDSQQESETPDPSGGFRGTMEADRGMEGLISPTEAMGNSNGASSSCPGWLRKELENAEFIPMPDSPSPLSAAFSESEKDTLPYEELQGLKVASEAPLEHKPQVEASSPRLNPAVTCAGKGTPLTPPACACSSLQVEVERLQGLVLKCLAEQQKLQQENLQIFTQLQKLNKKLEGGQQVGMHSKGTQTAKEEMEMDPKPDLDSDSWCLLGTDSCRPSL
# [6] = tested on: Phosphatidylinositol 4,5-bisphosphate 3-kinase catalytic subunit alpha isoform (Homo sapiens), P42336 [C420R]; test: Inhibition of PIK3CA C420R mutant (unknown origin) assessed as residual activity at 1000 nM by KINOMEscan analysis relative to control
# [7] = target: Serine/threonine-protein kinase PLK1 (Homo sapiens) (UniProt P53350); test: Inhibition of PLK1 (unknown origin) assessed as residual activity at 1000 nM by KINOMEscan analysis relative to control
# [8] = target: Receptor-interacting serine/threonine-protein kinase 2 (Homo sapiens) (UniProt O43353); test: Inhibition of RIPK2 (unknown origin) assessed as residual activity at 1000 nM by KINOMEscan analysis relative to control
# [9] = target: Serine/threonine-protein kinase 35 (Homo sapiens) (UniProt Q8TDR2); test: Inhibition of STK35 (unknown origin) assessed as residual activity at 1000 nM by KINOMEscan analysis relative to control
# [10] = target: Serine/threonine-protein kinase PAK 1 (Homo sapiens) (UniProt Q13153); test: Inhibition of PAK1 (unknown origin) assessed as residual activity at 1000 nM by KINOMEscan analysis relative to control
# [11] = target: SRSF protein kinase 3 (Homo sapiens) (UniProt Q9UPE1); test: Inhibition of SRPK3 (unknown origin) assessed as residual activity at 1000 nM by KINOMEscan analysis relative to control
# SRSF protein kinase 3 (Homo sapiens), sequence (Q9UPE1 whole entry, looked up): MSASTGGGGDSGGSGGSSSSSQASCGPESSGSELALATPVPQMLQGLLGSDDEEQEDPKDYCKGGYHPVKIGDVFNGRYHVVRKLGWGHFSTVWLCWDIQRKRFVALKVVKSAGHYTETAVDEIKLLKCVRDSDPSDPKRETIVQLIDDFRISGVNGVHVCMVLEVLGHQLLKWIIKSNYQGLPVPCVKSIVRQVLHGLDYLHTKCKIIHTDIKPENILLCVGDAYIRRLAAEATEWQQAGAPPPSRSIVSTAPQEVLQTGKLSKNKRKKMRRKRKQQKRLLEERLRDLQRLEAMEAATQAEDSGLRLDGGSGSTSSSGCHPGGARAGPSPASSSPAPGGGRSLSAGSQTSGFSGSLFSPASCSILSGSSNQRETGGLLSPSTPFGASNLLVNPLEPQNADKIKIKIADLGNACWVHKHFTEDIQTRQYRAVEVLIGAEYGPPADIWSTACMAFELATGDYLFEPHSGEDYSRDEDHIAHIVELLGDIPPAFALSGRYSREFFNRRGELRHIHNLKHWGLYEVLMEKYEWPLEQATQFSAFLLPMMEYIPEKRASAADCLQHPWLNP
# Cyclin-dependent kinase 8 (Homo sapiens), sequence (P49336 whole entry): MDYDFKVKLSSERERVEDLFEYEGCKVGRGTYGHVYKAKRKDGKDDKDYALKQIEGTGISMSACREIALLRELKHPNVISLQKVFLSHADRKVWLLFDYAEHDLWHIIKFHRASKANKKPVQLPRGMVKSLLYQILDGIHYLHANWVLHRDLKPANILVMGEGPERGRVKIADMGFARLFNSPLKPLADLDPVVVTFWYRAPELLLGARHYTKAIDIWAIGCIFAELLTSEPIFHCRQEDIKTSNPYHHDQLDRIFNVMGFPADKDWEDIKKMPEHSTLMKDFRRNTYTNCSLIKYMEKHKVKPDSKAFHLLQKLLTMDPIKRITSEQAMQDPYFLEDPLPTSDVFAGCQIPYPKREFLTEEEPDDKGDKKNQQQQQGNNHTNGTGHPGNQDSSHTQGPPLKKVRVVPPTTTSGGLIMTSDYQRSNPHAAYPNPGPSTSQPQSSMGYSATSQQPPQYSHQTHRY
# Serine/threonine-protein kinase PAK 1 (Homo sapiens), sequence (Q13153 whole entry, looked up): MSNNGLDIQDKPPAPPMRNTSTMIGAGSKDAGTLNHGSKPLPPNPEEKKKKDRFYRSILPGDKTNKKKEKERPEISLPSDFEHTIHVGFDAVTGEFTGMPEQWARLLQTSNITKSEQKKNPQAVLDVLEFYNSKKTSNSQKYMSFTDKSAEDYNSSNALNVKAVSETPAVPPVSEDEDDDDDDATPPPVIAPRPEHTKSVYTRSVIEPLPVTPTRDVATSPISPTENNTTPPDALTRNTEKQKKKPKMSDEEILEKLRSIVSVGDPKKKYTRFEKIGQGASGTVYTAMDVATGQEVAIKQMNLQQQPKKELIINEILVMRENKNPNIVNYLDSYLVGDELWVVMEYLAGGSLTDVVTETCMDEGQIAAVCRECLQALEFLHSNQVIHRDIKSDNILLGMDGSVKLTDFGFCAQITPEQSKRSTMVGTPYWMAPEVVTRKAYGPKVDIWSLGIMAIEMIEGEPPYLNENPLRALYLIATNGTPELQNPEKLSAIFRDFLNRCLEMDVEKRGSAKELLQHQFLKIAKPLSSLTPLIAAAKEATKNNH
# Serine/threonine-protein kinase 35 (Homo sapiens), sequence (Q8TDR2 whole entry): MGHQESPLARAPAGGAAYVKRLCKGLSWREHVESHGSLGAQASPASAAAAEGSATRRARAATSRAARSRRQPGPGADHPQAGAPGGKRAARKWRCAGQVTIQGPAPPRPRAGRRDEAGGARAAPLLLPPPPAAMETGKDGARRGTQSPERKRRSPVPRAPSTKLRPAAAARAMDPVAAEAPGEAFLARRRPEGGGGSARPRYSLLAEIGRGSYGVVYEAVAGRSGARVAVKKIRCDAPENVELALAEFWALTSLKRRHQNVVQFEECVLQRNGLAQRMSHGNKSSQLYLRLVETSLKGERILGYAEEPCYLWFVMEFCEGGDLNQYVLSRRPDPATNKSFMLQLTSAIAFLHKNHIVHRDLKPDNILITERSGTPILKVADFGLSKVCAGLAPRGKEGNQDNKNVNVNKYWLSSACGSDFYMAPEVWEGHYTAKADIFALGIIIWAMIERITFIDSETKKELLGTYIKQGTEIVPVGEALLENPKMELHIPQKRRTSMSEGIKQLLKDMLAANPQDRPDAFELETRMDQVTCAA
# Phosphatidylinositol 4,5-bisphosphate 3-kinase catalytic subunit alpha isoform (Homo sapiens), P42336 [C420R], sequence (P42336 whole entry C420R, canonical isoform): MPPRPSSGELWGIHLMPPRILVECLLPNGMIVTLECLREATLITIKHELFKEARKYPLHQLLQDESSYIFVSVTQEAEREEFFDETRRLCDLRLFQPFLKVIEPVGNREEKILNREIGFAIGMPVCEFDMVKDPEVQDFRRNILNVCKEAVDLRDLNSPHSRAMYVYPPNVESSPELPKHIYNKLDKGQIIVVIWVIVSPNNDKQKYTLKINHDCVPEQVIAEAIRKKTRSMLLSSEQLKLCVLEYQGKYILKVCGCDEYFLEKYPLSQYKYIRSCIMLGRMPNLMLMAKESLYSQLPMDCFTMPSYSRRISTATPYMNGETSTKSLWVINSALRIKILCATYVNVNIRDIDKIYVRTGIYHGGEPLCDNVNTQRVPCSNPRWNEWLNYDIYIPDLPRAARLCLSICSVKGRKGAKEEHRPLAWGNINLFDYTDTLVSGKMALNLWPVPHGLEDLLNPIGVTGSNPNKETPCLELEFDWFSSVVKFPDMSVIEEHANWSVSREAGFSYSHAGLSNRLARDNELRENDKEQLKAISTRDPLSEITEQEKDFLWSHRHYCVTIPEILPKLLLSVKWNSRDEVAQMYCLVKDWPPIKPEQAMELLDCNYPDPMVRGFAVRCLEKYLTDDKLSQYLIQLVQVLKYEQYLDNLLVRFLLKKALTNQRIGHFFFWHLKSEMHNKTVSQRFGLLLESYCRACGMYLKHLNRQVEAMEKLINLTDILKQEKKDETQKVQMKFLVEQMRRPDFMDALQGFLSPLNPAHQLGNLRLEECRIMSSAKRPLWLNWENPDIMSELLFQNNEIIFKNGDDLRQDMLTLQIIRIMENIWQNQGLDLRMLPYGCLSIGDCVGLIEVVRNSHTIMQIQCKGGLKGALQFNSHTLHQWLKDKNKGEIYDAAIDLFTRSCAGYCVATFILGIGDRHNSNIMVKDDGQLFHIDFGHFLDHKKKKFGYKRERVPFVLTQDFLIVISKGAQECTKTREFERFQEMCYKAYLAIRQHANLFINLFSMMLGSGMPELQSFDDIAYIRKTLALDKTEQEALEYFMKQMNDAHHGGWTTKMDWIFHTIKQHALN
# 5'-AMP-activated protein kinase catalytic subunit alpha-1 (Homo sapiens), sequence (Q13131 whole entry, looked up): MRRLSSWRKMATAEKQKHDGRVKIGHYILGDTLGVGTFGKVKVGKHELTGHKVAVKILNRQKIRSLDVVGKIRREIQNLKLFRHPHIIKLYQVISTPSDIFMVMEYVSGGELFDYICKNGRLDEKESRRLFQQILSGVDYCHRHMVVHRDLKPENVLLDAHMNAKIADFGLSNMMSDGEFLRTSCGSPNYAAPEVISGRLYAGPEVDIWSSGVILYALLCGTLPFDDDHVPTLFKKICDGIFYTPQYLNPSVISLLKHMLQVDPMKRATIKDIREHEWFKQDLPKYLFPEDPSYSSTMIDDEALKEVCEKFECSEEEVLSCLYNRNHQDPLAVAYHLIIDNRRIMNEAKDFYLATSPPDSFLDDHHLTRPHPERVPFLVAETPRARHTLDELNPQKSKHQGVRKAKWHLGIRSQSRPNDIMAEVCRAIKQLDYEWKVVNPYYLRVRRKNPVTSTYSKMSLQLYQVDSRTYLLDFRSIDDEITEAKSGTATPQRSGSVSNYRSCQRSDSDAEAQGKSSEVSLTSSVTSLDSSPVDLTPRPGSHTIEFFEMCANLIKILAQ
# Receptor-interacting serine/threonine-protein kinase 2 (Homo sapiens), sequence (O43353 whole entry): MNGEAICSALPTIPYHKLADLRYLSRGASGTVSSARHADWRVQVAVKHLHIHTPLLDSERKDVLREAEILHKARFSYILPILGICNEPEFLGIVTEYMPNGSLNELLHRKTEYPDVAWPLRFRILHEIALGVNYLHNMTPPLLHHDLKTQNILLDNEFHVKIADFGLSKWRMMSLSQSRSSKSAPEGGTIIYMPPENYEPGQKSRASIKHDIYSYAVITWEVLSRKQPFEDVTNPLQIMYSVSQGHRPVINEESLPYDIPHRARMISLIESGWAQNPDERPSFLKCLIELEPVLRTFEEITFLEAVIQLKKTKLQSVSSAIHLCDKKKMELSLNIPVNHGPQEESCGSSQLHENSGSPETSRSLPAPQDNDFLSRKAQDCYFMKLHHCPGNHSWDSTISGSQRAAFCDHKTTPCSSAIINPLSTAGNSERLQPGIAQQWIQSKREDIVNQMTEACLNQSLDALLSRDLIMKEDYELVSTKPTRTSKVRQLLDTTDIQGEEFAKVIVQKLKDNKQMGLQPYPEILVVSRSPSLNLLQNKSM
# Serine/threonine-protein kinase PLK1 (Homo sapiens), sequence (P53350 whole entry): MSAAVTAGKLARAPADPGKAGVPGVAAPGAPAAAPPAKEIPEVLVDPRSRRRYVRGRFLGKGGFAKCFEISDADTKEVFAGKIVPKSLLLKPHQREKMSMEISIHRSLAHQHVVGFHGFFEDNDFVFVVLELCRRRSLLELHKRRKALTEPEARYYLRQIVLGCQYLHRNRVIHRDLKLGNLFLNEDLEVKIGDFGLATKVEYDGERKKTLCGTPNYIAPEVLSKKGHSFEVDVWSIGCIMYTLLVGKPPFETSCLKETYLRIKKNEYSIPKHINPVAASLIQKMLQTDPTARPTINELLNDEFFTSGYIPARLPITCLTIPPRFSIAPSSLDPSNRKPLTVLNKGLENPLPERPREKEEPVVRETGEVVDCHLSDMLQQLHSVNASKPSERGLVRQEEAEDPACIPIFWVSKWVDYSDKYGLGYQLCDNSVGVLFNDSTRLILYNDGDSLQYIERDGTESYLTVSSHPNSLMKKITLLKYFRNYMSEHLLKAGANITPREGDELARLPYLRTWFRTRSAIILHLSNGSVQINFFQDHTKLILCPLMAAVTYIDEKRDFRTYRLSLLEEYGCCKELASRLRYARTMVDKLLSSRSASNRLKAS
Compound,Activity [1] [%],Activity [2] [%],Activity [3] [%],Activity [4] [%],Activity [5] [%],Activity [6] [%],Activity [7] [%],Activity [8] [%],Activity [9] [%],Activity [10] [%],Activity [11] [%]
COc1cc2nc(C)nc(N[C@H](C)c3cccc(-c4cn[nH]c4)c3)c2cc1OC,82,91,98,100,97,82,100,73,92,62,93
COc1cc2ncnc(N[C@H](C)c3cccc4ccccc34)c2cc1OC,100,93,100,64,100,82,92,99,100,90,100
